Here are results for four compounds from ChEMBL document CHEMBL1201862, “PubChem BioAssay data set” (2004).

Molecules are shown by their SMILES.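 Assay format: 96-well plates, 48-hour exposure. GI50: concentration for 50% inhibition of growth.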 Active and inactive are the calls of the source. Rule as the data show it: active = GI50 up to about 1.1 µM and inactive = higher.

Holding throughout (assay): DTP human tumour cell line panel, 48 h
Assay [1] has as its system UO-31.
The subject of assay [2] is DU-145.
Assay [3] has as its system OVCAR-3.
Assay [4] concerns IGROV-1.
The test system of assay [5] is SW-620.
Assay [6] has as its system HCT-15.
Assay [7] deals with RPMI-8226.
For assay [8], the system named is UACC-257.
The subject of assay [9] is K562.
Assay [10] has as its system EKVX.
The subject of assay [11] is NCI-H522.
Assay [12] has as its system SK-MEL-5.
Assay [13] has as its system TK-10.
For assay [14], the system named is RXF 393.
Assay [15] deals with HOP-92.
Assay [16] has as its system HCT-116.
The test system of assay [17] is CCRF-CEM.
Assay [18] deals with KM12.
Assay [19] deals with HOP-62.

Turning to `Cc1cccc(Br)[n+]1[O-]`, the GI50 (in general, the concentration giving 50% growth inhibition) was > 100 µM (inactive) in assay [1]; > 100 µM (inactive) in assay [2]; > 100 µM (inactive) in [3]; > 100 µM (inactive) in assay [4]; > 100 µM (inactive) in assay [5]; over 100 µM in assay [6]. Also, the GI50 in [7], in [8], in assay [9], in assay [10], in assay [11] and in assay [12] was > 100 µM (inactive) throughout. For the same compound, the GI50 in assay [13], in assay [14], in assay [15], in [16], in assay [17] and in assay [18] was > 100 µM (inactive) each time. In assay [19], the GI50 is > 100 µM (inactive).
In the case of `N[C@@H](Cc1ccc2oc3cc(=O)c4ccccc4c-3nc2c1)C(=O)O`, the GI50 was > 100 µM (inactive) in assay [1]; 19.5 µM (inactive) in [2]; 27.2 µM (inactive) in assay [3]; > 100 µM (inactive) in [4]; > 100 µM (inactive) in assay [5]; 57.4 µM in assay [6]. The GI50 was > 100 µM (inactive) in assay [7]; 18.1 µM (inactive) in assay [8]; > 100 µM (inactive) in [9]; > 100 µM (inactive) in assay [10]; 39.7 µM (inactive) in [11]; 11.7 µM (inactive) in [12]. The GI50 in assay [13] is > 100 µM (inactive); in assay [14], > 100 µM (inactive); in [15] it was > 100 µM (inactive); in assay [16], > 100 µM (inactive); in [17], 38.5 µM (inactive); in assay [18], > 100 µM (inactive). In addition, the GI50 in assay [19] was 21.9 µM (inactive).
For the compound `Cc1cc(N2CCN(C)CC2)n2nc(-c3ccc(Cl)cc3)nc2n1`, the GI50 in assay [2] was > 100 µM (inactive); in assay [3], > 100 µM (inactive); in [4], > 100 µM (inactive); in assay [5], > 100 µM (inactive); in assay [6], over 100 µM; in [7], 56.5 µM (inactive). Moreover, the GI50 in assay [8] was 77.6 µM (inactive); in assay [9], 60.4 µM (inactive); in [10] it was 80.5 µM (inactive); in assay [11], 84.7 µM (inactive); in assay [12], 50.2 µM (inactive); in assay [13], 68.1 µM (inactive). In addition, the GI50 in assay [14] was 31.5 µM (inactive); in [15], > 100 µM (inactive); in assay [16], 61.7 µM (inactive); in assay [17], 11.5 µM (inactive); in assay [18], > 100 µM (inactive); in assay [19], > 100 µM (inactive).
With `COc1c(C)c(C/C=C(\C)CCCCO)c(OC)c(OC)c1OC`, the GI50 in [1] was > 100 µM (inactive); in [2] it was > 100 µM (inactive); in assay [3], > 100 µM (inactive); in assay [4], 45.2 µM (inactive); in assay [5], > 100 µM (inactive); in assay [6], over 100 µM. Besides, the GI50 in assay [7] is 10.3 µM (inactive); in [8], > 100 µM (inactive); in assay [9], 24.4 µM (inactive); in assay [10], > 100 µM (inactive); in assay [11] it was > 100 µM (inactive); in assay [12], 88.7 µM (inactive). Moreover, the GI50 in assay [13] is > 100 µM (inactive); in [14], > 100 µM (inactive); in assay [15] it was > 100 µM (inactive); in assay [16], > 100 µM (inactive); in [17], 45.6 µM (inactive); in assay [18], 19.1 µM (inactive). The GI50 in [19] was > 100 µM (inactive).
